Tests used:
[1] = target: T1, Nostoc sp. R76DM phycocyanin (N-PC) (Nostoc, UniProt A0A5H1ZR40+A0A5H1ZR41); experiment: X-ray crystal structure ([…] Å); type: binding; conditions: covalent; native chromophore attached to alpha Cys84, beta Cys82 and beta Cys153; 18 PCB per hexamer
T1 construct: native, purified from Nostoc sp; R76DM cells; (alpha3beta3)2 hexamer; subunits near 18 kDa on SDS-PAGE; chromophores covalently attached

[2] = target: Nostoc sp. R76DM phycocyanin αβ heterodimer (αβ monomer) (Nostoc sp. R76DM); experiment: crystal structure; N-PC at 10 mg/mL, sitting drop vapor diffusion, 0.2 M sodium malonate, 20% (w/v) PEG 3350, 25 °C; space group P21, 2.35 Å; one (α3β3)2 hexamer in the asymmetric unit

T1 sequence (A0A5H1ZR41 entry or part of it): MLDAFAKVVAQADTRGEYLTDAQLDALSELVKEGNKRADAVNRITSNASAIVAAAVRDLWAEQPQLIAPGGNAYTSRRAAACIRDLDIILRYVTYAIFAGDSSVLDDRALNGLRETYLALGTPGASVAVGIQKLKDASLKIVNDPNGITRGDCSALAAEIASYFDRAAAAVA
T1 sequence (A0A5H1ZR40 entry or part of it): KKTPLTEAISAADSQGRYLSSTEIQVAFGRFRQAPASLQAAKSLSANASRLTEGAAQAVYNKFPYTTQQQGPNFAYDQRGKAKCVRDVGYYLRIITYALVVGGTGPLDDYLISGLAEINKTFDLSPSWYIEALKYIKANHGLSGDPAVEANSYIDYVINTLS

Molecule	X-ray crystal structure (2.35 Å) [1]	stoichiometry N [2]
C/C=C1/C(=C/c2[nH]c(/C=C3N=C(/C=C4\NC(=O)C(CC)=C4C)C(C)=C\3CCC(=O)O)c(CCC(=O)O)c2C)NC(=O)[C@@H]1C [phycocyanobilin]	The N-PC contains three PCB chromophores; one is attached covalently with Cys84 of α-subunit	
Nostoc sp. R76DM phycocyanin αβ heterodimer (αβ monomer) (complex)		6

Source: article PMC6614406, “Phylogenetic and crystallographic analysis of Nostoc phycocyanin having blue-shifted spectral properties” (Scientific Reports, 2019)
